Laboratory results from US12077503B2, “Substituted cyclic amides and their use as herbicides” (FMC CORPORATION, priority 2015, dated 2024).

Legend:
Type in all cases: in vivo
Kochia (Kochia scoparia) [1] = experiment: Test A preemergence
Method in brief: (§1)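 Visual injury scores from 0, no effect, to 100, complete control, were assigned versus untreated controls roughly 10 d after treatment in the greenhouse. Test chemicals, formulated with surfactant in a non-phytotoxic solvent, were applied to planted seeds as a preemergence soil spray or postemergence to one- to two-leaf plants 2 to 10 cm tall, in loam–sand soil.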

[2] = system: barnyardgrass (Echinochloa crus-galli); experiment: Test A preemergence
Method in brief: as §1

[3] = system: giant foxtail (Setaria faberii); experiment: Test A preemergence
Method in brief: as §1

[4] = system: pigweed (Amaranthus retroflexus); experiment: Test A preemergence
[5] = system: ragweed (common ragweed, Ambrosia elatior); experiment: Test A preemergence
Method in brief: as §1

[6] = system: ryegrass, Italian (Italian ryegrass, Lolium multiflorum); experiment: Test A preemergence
Method in brief: as §1

[7] = system: Galium (catchweed bedstraw, Galium aparine); experiment: Test A postemergence
Method in brief: as §1

Kochia (Kochia scoparia) [8] = experiment: Test A postemergence
Method in brief: as §1

[9] = system: barnyardgrass (Echinochloa crus-galli); experiment: Test A postemergence
Method in brief: as §1

[10] = system: blackgrass (Alopecurus myosuroides); experiment: Test A postemergence
Method in brief: as §1

corn (Zea mays) = experiment: Test A postemergence
Method in brief: as §1

[11] = system: giant foxtail (Setaria faberii); experiment: Test A postemergence
Method in brief: as §1

[12] = system: pigweed (Amaranthus retroflexus); experiment: Test A postemergence
Method in brief: as §1

[13] = system: ragweed (common ragweed, Ambrosia elatior); experiment: Test A postemergence
Method in brief: as §1

[14] = system: ryegrass, Italian (Italian ryegrass, Lolium multiflorum); experiment: Test A postemergence
Method in brief: as §1

[15] = system: wheat (Triticum aestivum); experiment: Test A postemergence
Method in brief: as §1

[16] = system: barnyardgrass (Echinochloa crus-galli); experiment: Test B flooded paddy test; details: Flood, 250 g ai/ha
Method in brief: (§2)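 Response scored visually against untreated controls, 0 = no effect and 100 = complete control, 13–15 d after treatment in the greenhouse. Compounds added to paddy water held 3 cm above soil surface. Treatment given at 2-leaf stage.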

[17] = system: ducksalad (Heteranthera limosa); experiment: Test B flooded paddy test; details: Flood, 250 g ai/ha
Method in brief: as §2

rice (Oryra sativa) = experiment: Test B flooded paddy test; details: Flood, 250 g ai/ha
Method in brief: as §2

[18] = system: sedge, umbrella (small-flower umbrella sedge, Cyperus difformis); experiment: Test B flooded paddy test; details: Flood, 250 g ai/ha
Method in brief: as §2

[19] = 125 g ai/ha, preemergence, 0 to 100 scale (0 no effect, 100 complete control)
[20] = Preemergence, 500 g ai/ha, 0 is no effect, 100 is complete control
[21] = 125 g ai/ha, postemergence, visual injury rating on 0 to 100 scale (0 no effect, 100 complete control), approx. 10 d
[22] = 500 g ai/ha, postemergence, 0 to 100 scale, 0 no effect, 100 complete control
[23] = Postemergence, 125 g ai/ha, visual injury, 0 to 100 scale (0 no effect, 100 complete control), approx. 10 d
[24] = 0 to 100 scale where 0 is no effect and 100 is complete control, 13 to 15 d

CC(C)Oc1ccc([C@H]2CN(C)C(=O)[C@@H]2C(=O)Nc2ccccc2F)cc1 [Compound 952]
60%: pest or weed control at 125 g/ha ([9]; Echinochloa crus-galli, post-emergence, 240 h, 125 g ai/ha, Postemergence, visual injury after approximately 10 d, 0 to 100 scale where 0 is no effect and 100 is complete control, read-out: Plant response rating, Barnyardgrass)
80%: pest or weed control at 125 g/ha ([3]; Setaria faberi, pre-emergence, 240 h, 125 g ai/ha, Preemergence, visual injury rating after approximately 10 d, read-out: Foxtail, Giant plant response rating (0 to 100 scale, 0 is no effect, 100 is complete control))
40%: pest or weed control at 250 g/ha ([17]; Heteranthera limosa, scale of 0 to 100 where 0 is no effect and 100 is complete control, read-out: Ducksalad plant response rating)
0%: pest or weed control at 125 g/ha ([4]; Amaranthus retroflexus, pre-emergence, 240 h, 125 g ai/ha, Preemergence, visual injury rating after approximately 10 d, read-out: Pigweed plant response rating (0 to 100 scale, 0 is no effect, 100 is complete control)) | pest or weed control at 500 g/ha ([4]; Amaranthus retroflexus, pre-emergence, 240 h, 500 g ai/ha, preemergence, visual injury rating about 10 d after treatment, 0 to 100 scale (0 no effect, 100 complete control), read-out: Pigweed plant response rating) | pest or weed control at 125 g/ha ([5]; Ambrosia artemisiifolia, pre-emergence, 240 h, 125 g ai/ha, Preemergence, visual injury rating after approximately 10 d, read-out: Ragweed plant response rating (0 to 100 scale, 0 is no effect, 100 is complete control)) | pest or weed control at 500 g/ha ([5]; Ambrosia artemisiifolia, pre-emergence, 240 h, 500 g ai/ha, preemergence, visual injury rating about 10 d after treatment, 0 to 100 scale (0 no effect, 100 complete control), read-out: Ragweed plant response rating) | pest or weed control at 125 g/ha ([6]; Lolium multiflorum, pre-emergence, 240 h, 125 g ai/ha, Preemergence, visual injury rating after approximately 10 d, read-out: Ryegrass, Italian plant response rating (0 to 100 scale, 0 is no effect, 100 is complete control)) | pest or weed control at 500 g/ha ([6]; Lolium multiflorum, pre-emergence, 240 h, 500 g ai/ha, preemergence, visual injury rating about 10 d after treatment, 0 to 100 scale (0 no effect, 100 complete control), read-out: Ryegrass, Italian plant response rating) | pest or weed control at 125 g/ha ([7]; Galium, post-emergence, 240 h, 125 g ai/ha, Postemergence, visual injury after approximately 10 d, 0 to 100 scale where 0 is no effect and 100 is complete control, read-out: Plant response rating, Galium) | pest or weed control at 125 g/ha (Kochia (Kochia scoparia) [8]; Bassia scoparia, post-emergence, 240 h, 125 g ai/ha, Postemergence, visual injury after approximately 10 d, 0 to 100 scale where 0 is no effect and 100 is complete control, read-out: Plant response rating, Kochia) | pest or weed control at 125 g/ha ([10]; Alopecurus myosuroides, post-emergence, 240 h, 125 g ai/ha, Postemergence, visual injury after approximately 10 d, 0 to 100 scale where 0 is no effect and 100 is complete control, read-out: Plant response rating, Blackgrass) | Corn plant response rating (crop injury, 0 = no effect, 100 = complete kill) at 125 g/ha (corn (Zea mays); Zea mays, post-emergence, 240 h, 125 g ai/ha, Postemergence, visual injury after approximately 10 d, 0 to 100 scale where 0 is no effect and 100 is complete control) | pest or weed control at 125 g/ha ([12]; Amaranthus retroflexus, post-emergence, 240 h, 125 g ai/ha, Postemergence, visual injury after approximately 10 d, 0 to 100 scale where 0 is no effect and 100 is complete control, read-out: Plant response rating, Pigweed) | pest or weed control at 125 g/ha ([13]; Ambrosia artemisiifolia, post-emergence, 240 h, 125 g ai/ha, Postemergence, visual injury after approximately 10 d, 0 to 100 scale where 0 is no effect and 100 is complete control, read-out: Plant response rating, Ragweed) | pest or weed control at 125 g/ha ([14]; Lolium multiflorum, post-emergence, 240 h, 125 g ai/ha, Postemergence, visual injury after approximately 10 d, 0 to 100 scale where 0 is no effect and 100 is complete control, read-out: Plant response rating, Ryegrass, Italian) | plant injury at 125 g/ha ([15]; Triticum aestivum, post-emergence, 240 h, 125 g ai/ha, Postemergence, visual injury after approximately 10 d, 0 to 100 scale where 0 is no effect and 100 is complete control, read-out: Plant response rating, Wheat) | pest or weed control at 250 g/ha ([16]; Echinochloa crus-galli, scale of 0 to 100 where 0 is no effect and 100 is complete control, read-out: Barnyardgrass plant response rating) | pest or weed control at 250 g/ha (rice (Oryra sativa); Oryza sativa, scale of 0 to 100 where 0 is no effect and 100 is complete control, read-out: Rice plant response rating) | pest or weed control at 250 g/ha ([18]; Cyperus difformis, scale of 0 to 100 where 0 is no effect and 100 is complete control, read-out: Sedge, Umbrella plant response rating)
90%: pest or weed control at 500 g/ha ([2]; Echinochloa crus-galli, pre-emergence, 240 h, 500 g ai/ha, preemergence, visual injury rating about 10 d after treatment, 0 to 100 scale (0 no effect, 100 complete control), read-out: Barnyardgrass plant response rating) | pest or weed control at 500 g/ha ([3]; Setaria faberi, pre-emergence, 240 h, 500 g ai/ha, preemergence, visual injury rating about 10 d after treatment, 0 to 100 scale (0 no effect, 100 complete control), read-out: Foxtail, Giant plant response rating)
50%: pest or weed control at 125 g/ha ([2]; Echinochloa crus-galli, pre-emergence, 240 h, 125 g ai/ha, Preemergence, visual injury rating after approximately 10 d, read-out: Barnyardgrass plant response rating (0 to 100 scale, 0 is no effect, 100 is complete control)) | pest or weed control at 125 g/ha ([11]; Setaria faberi, post-emergence, 240 h, 125 g ai/ha, Postemergence, visual injury after approximately 10 d, 0 to 100 scale where 0 is no effect and 100 is complete control, read-out: Plant response rating, Foxtail, Giant)
30%: pest or weed control at 125 g/ha (Kochia (Kochia scoparia) [1]; Bassia scoparia, pre-emergence, 240 h, 125 g ai/ha, Preemergence, visual injury rating after approximately 10 d, read-out: Kochia plant response rating (0 to 100 scale, 0 is no effect, 100 is complete control)) | pest or weed control at 500 g/ha (Kochia (Kochia scoparia) [1]; Bassia scoparia, pre-emergence, 240 h, 500 g ai/ha, preemergence, visual injury rating about 10 d after treatment, 0 to 100 scale (0 no effect, 100 complete control), read-out: Kochia plant response rating)

CN1CC(c2ccc(C(F)(F)F)c(F)c2)C(C(=O)Nc2cccc(F)c2F)C1=O (centres unmarked) [Compound 396]
20: Ragweed plant response rating (0 to 100 scale) [5, 20] | Wheat plant response rating [15, 21]
30: Plant response rating, Rice (rice (Oryra sativa); [24])
60: Plant response rating, Ryegrass, Italian [6, 19] | Galium plant response rating [7, 21] | Plant response rating, Galium [7, 22] | Kochia plant response rating (Kochia (Kochia scoparia) [8]; [21]) | Plant response rating, Blackgrass [10, 22] | Pigweed plant response rating [12, 21]
0: Plant response rating, Ragweed [5, 19] | Ragweed plant response rating [13, 21] | Plant response rating, Ragweed [13, 22] | Plant response rating, Sedge, Umbrella [18, 24]
50: Plant response rating, Blackgrass [10, 23] | Ryegrass, Italian plant response rating [14, 21]
90: Plant response rating, Barnyardgrass [2, 19] | Barnyardgrass plant response rating (0 to 100 scale) [2, 20] | Plant response rating, Foxtail, Giant [3, 19] | Foxtail, Giant plant response rating (0 to 100 scale) [3, 20] | Plant response rating, Pigweed [4, 19] | Pigweed plant response rating (0 to 100 scale) [4, 20] | Plant response rating, Barnyardgrass [9, 22] | Plant response rating, Foxtail, Giant [11, 22]
80: Plant response rating, Kochia (Kochia (Kochia scoparia) [1]; [19]) | Kochia plant response rating (0 to 100 scale) (Kochia (Kochia scoparia) [1]; [20]) | Plant response rating, Corn (corn (Zea mays); [22]) | Foxtail, Giant plant response rating [11, 21]
40: Plant response rating, Barnyardgrass [16, 24] | Plant response rating, Ducksalad [17, 24]
70: Ryegrass, Italian plant response rating (0 to 100 scale) [6, 20] | Plant response rating, Kochia (Kochia (Kochia scoparia) [8]; [22]) | Plant response rating, Barnyardgrass [9, 23] | Corn plant response rating (corn (Zea mays); [21]) | Plant response rating, Pigweed [12, 22] | Plant response rating, Ryegrass, Italian [14, 22] | Plant response rating, Wheat [15, 22]
